Several values for one entry are separate records, joined by “and”; a condition that tells them apart may be missing. Equal values may be shown once.
System: 521955-158-R2-J5-PDC complex spheroid growth
Assay: Anticancer human tumor 521955-158-R2-J5-PDC patient-derived pancreatic carcinoma cell line growth inhibition [AhR]
Settings: for viability, T/C: stronger effect = lower value
How it was run: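 Spheroids combined tumor cells with HUVEC endothelial cells and human MSCs as stroma. AhR antagonists were paired with standard or investigational drugs, each dosed in half-log steps down from near clinical Cmax, or from 10 microM where Cmax was unknown.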

[1] = curve of first compound, second compound 0.1 µM
[2] = curve of first compound, second compound 0.316 µM
[3] = curve of first compound, second compound 1 µM
[4] = curve of first compound, second compound 3.16 µM
[5] = curve of first compound, second compound 10 µM
[6] = second compound 0.1 µM, first compound 0.0316 µM
[7] = second compound 0.1 µM, first compound 0.1 µM
[8] = second compound 0.1 µM, first compound 0.316 µM
[9] = second compound 0.1 µM, first compound 1 µM
[10] = second compound 0.1 µM, first compound 3.16 µM
[11] = second compound 0.1 µM, first compound 10 µM
[12] = second compound 0.316 µM, first compound 0.0316 µM
[13] = second compound 0.316 µM, first compound 0.1 µM
[14] = second compound 0.316 µM, first compound 0.316 µM
[15] = second compound 0.316 µM, first compound 1 µM
[16] = second compound 0.316 µM, first compound 3.16 µM
[17] = second compound 0.316 µM, first compound 10 µM
[18] = second compound 1 µM, first compound 0.0316 µM
[19] = second compound 1 µM, first compound 0.1 µM
[20] = second compound 1 µM, first compound 0.316 µM
[21] = second compound 1 µM, first compound 1 µM
[22] = second compound 1 µM, first compound 3.16 µM
[23] = second compound 1 µM, first compound 10 µM
[24] = second compound 3.16 µM, first compound 0.0316 µM
[25] = second compound 3.16 µM, first compound 0.1 µM
[26] = second compound 3.16 µM, first compound 0.316 µM
[27] = second compound 3.16 µM, first compound 1 µM
[28] = second compound 3.16 µM, first compound 3.16 µM
[29] = second compound 3.16 µM, first compound 10 µM
[30] = second compound 10 µM, first compound 0.0316 µM
[31] = second compound 10 µM, first compound 0.1 µM
[32] = second compound 10 µM, first compound 0.316 µM
[33] = second compound 10 µM, first compound 1 µM
[34] = second compound 10 µM, first compound 3.16 µM
[35] = second compound 10 µM, first compound 10 µM
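Throughout, for viability, T/C: spheroids mix tumor cells with HUVEC endothelium and human MSC stroma; luminescence taken as viability surrogate after a week of drug exposure.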

For `CC1(C)CCC(CN2CCN(c3ccc(C(=O)NS(=O)(=O)c4ccc(NCC5CCOCC5)c([N+](=O)[O-])c4)c(Oc4cnc5[nH]ccc5c4)c3)CC2)=C(c2ccc(Cl)cc2)C1` + CC(CO)NC(=O)c1cc(-c2ccc(Cl)cc2)nn(-c2cnn(C)c2)c1=O, the IC50 [1] was over 10000 nM, the IC50 [2] was over 10000 nM and the IC50 [3] was over 10000 nM. It also gave an IC50 [4] of over 10000 nM, an IC50 [5] of over 10000 nM and a viability, T/C [6] of 103%. It also gave a viability, T/C [7] of 125%, a viability, T/C [8] of 92.1% and a viability, T/C [9] of 92.7%. The viability, T/C [10] was 98%, the viability, T/C [11] was 67.3% and the viability, T/C [12] was 115%. For the same molecule, the viability, T/C [13] was 111%, the viability, T/C [14] was 124% and the viability, T/C [15] was 100%. It also gave a viability, T/C [16] of 111%, a viability, T/C [17] of 67.7% and a viability, T/C [18] of 93.1%. The viability, T/C [19] was 105%, the viability, T/C [20] was 122% and the viability, T/C [21] was 138%. It also gave a viability, T/C [22] of 124%, a viability, T/C [23] of 56% and a viability, T/C [24] of 123%. It also gave a viability, T/C [25] of 99.1%, a viability, T/C [26] of 113% and a viability, T/C [27] of 113%. The viability, T/C [28] was 108%, the viability, T/C [29] was 61.9% and the viability, T/C [30] was 90.2%. The viability, T/C [31] was 120%, the viability, T/C [32] was 109% and the viability, T/C [33] was 92.8%. The viability, T/C [34] was 95.1% and the viability, T/C [35] was 63.7%.
`Nc1ncn(C2CC(O)C(CO)S2)c(=O)n1` (configuration not stated) was tested, and the viability, T/C (compound 0.000949 µM) was 104% and 88.3% and 99.6%, the viability, T/C (compound 0.003 µM) was 100% and 82.5% and 108% and the viability, T/C (compound 0.00949 µM) was 97.7% and 84.6% and 93%. The viability, T/C (compound 0.03 µM) was 93.5% and 74.3% and 75.1%, the viability, T/C (compound 0.0949 µM) was 98.7% and 75.1% and 73.7% and the viability, T/C (compound 0.3 µM) was 91.9% and 72.8% and 71.8%. It also gave an IC50 (curve of compound) of over 300 nM.
With `COc1cc(C2c3cc4c(cc3C(OC3OC5COC(C)OC5C(O)C3O)C3COC(=O)C23)OCO4)cc(OC)c1O` (configuration not stated) + Cc1ccccc1N=Nc1ccc(NC(=O)c2ccnn2C)c(C)c1 the IC50 [1] was 755 nM, the IC50 [2] was 668 nM and the IC50 [3] was 1010 nM. For the same molecule, the IC50 [4] was 880 nM, the IC50 [5] was 1580 nM and the viability, T/C [6] was 99.3%. The viability, T/C [7] was 78.2%, the viability, T/C [8] was 81.2% and the viability, T/C [9] was 39%. It also gave a viability, T/C [10] of 26%, a viability, T/C [11] of 17.6% and a viability, T/C [12] of 83.6%. It also gave a viability, T/C [13] of 108%, a viability, T/C [14] of 83.4% and a viability, T/C [15] of 31.9%. The viability, T/C [16] was 23.9%, the viability, T/C [17] was 20% and the viability, T/C [18] was 131%. The viability, T/C [19] was 97.3%, the viability, T/C [20] was 80% and the viability, T/C [21] was 49%. It also gave a viability, T/C [22] of 22.8%, a viability, T/C [23] of 18.4% and a viability, T/C [24] of 139%. For the same molecule, the viability, T/C [25] was 118%, the viability, T/C [26] was 104% and the viability, T/C [27] was 40.6%. It also gave a viability, T/C [28] of 27.3%, a viability, T/C [29] of 17.9% and a viability, T/C [30] of 131%. The viability, T/C [31] was 140%, the viability, T/C [32] was 112% and the viability, T/C [33] was 59.9%. For the same molecule, the viability, T/C [34] was 38.5% and the viability, T/C [35] was 22.9%.
